# According to publication PMC9518264, “Design and synthesis of novel quinazolinone-based derivatives as EGFR inhibitors with antitumor activity” (Journal of Enzyme Inhibition and Medicinal Chemistry, 2022):
# What was measured:
# HCT-15 = test: cells; assay type: cell-based
# SK-MEL-5 = test: cells; assay type: cell-based
# MDA-MB-231/ATCC = test: NCI 60 cell line antiproliferative screening (SRB), Breast cancer; assay type: cell-based
# ACHN = test: cells; assay type: cell-based
# MDA-MB-468 = test: NCI 60 cell line antiproliferative screening (SRB), Breast cancer
# HS 578T = test: cells; assay type: cell-based
# SK-OV-3 = test: cells; assay type: cell-based
# SK-MEL-2 = test: cells; assay type: cell-based
# MCF7 = test: cells; assay type: cell-based
# LOX IMIV = test: cells; assay type: cell-based
# HOP-62 = test: cells; assay type: cell-based
# OVCAR-8 = test: cells; assay type: cell-based
# CCRF-CEM = test: cells; assay type: cell-based
# MOLT-4 = test: cells; assay type: cell-based
# HT29 = test: cells; assay type: cell-based
# SNB-75 = test: cells; assay type: cell-based
# COLO-205 = test: cells; assay type: cell-based
# PC-3 = test: cells; assay type: cell-based
# K-562 = test: cells; assay type: cell-based
# U251 = test: cells; assay type: cell-based
# OVCAR-4 = test: cells; assay type: cell-based
# A498 = test: cells; assay type: cell-based
# SK-MEL-28 = test: cells; assay type: cell-based
# [1] = Homo sapiens, 5 doses, read-out: LC50 (the source's name)
# [2] = Homo sapiens, read-out: growth inhibition % (GI%)
compound,measurement,setting,value
"O=C(CSc1nc2ccccc2c(=O)n1-c1ccc(Cl)cc1)NN=Cc1ccc(Oc2ccc(Cl)cc2)cc1 [6d, N'-(4–(4-chlorophenoxy)benzylidene)-2-((3–(4-chlorophenyl)-4-oxo-3,4-dihydroquinazolin-2-yl)thio)acetohydrazide]",TGI,"HCT-15; HCT-15, 5 doses",7.48 µM
same,GI50,"HCT-15; Homo sapiens, HCT-15",2.41 µM
same,inhibition at 10 µM,"HCT-15; Homo sapiens, HCT-15, read-out: growth inhibition % (GI%)",89.6%
same,LC50 (concentration causing 50% net cell kill),"HCT-15; Homo sapiens, HCT-15, 5 doses",28.5 µM
same,GI50,"SK-MEL-5; Homo sapiens, SK-MEL-5",1.75 µM
same,inhibition at 10 µM,"SK-MEL-5; Homo sapiens, SK-MEL-5, read-out: growth inhibition % (GI%)",89.1%
same,CC50,"SK-MEL-5; Homo sapiens, SK-MEL-5, 5 doses, read-out: LC50 (the source's name)",7.07 µM
same,TGI,"SK-MEL-5; SK-MEL-5, 5 doses",3.51 µM
same,GI50,"MDA-MB-231/ATCC; Homo sapiens, MDA-MB-231",1.79 µM
same,inhibition at 10 µM,"MDA-MB-231/ATCC; Homo sapiens, MDA-MB-231, read-out: growth inhibition % (GI%)",69.6%
same,CC50,"MDA-MB-231/ATCC; Homo sapiens, MDA-MB-231/ATCC, 5 doses, read-out: LC50 (the source's name)",8.51 µM
same,TGI,"MDA-MB-231/ATCC; MDA-MB-231/ATCC, 5 doses",3.9 µM
same,TGI,ACHN; 5 doses,15.2 µM
same,GI50,ACHN; Homo sapiens,4.36 µM
same,CC50,ACHN; [1],39 µM
same,inhibition at 10 µM,ACHN; [2],36.5%
same,GI50,"MDA-MB-468; Homo sapiens, MDA-MB-468",2.08 µM
same,CC50,"MDA-MB-468; Homo sapiens, MDA-MB-468, read-out: LC50",18.8 µM
same,inhibition at 10 µM,"MDA-MB-468; Homo sapiens, MDA-MB-468, read-out: growth inhibition % (GI%)",> 100%
same,TGI,"MDA-MB-468; MDA-MB-468, 5 doses",5.08 µM
same,TGI,"HS 578T; HS 578T, 5 doses",6.36 µM
same,GI50,"HS 578T; Homo sapiens, Hs-578T",2.17 µM
same,inhibition at 10 µM,"HS 578T; Homo sapiens, Hs-578T, read-out: growth inhibition % (GI%)",78.6%
same,CC50,"HS 578T; Homo sapiens, HS 578T, 5 doses, read-out: LC50 (the source's name)",> 100 µM
same,GI50,"SK-OV-3; Homo sapiens, SK-OV-3",3.26 µM
same,inhibition at 10 µM,"SK-OV-3; Homo sapiens, SK-OV-3, read-out: growth inhibition % (GI%)",66.2%
same,CC50,"SK-OV-3; Homo sapiens, SK-OV-3, 5 doses, read-out: LC50 (the source's name)",49.4 µM
same,TGI,"SK-OV-3; SK-OV-3, 5 doses",11.9 µM
same,GI50,SK-MEL-2; Homo sapiens,2.86 µM
same,inhibition at 10 µM,"SK-MEL-2; Homo sapiens, SK-MEL-2, read-out: growth inhibition % (GI%)",45.7%
same,CC50,"SK-MEL-2; Homo sapiens, SK-MEL-2, 5 doses, read-out: LC50 (the source's name)",41.3 µM
same,TGI,"SK-MEL-2; SK-MEL-2, 5 doses",8.93 µM
same,GI50,"MCF7; Homo sapiens, MCF7",2.01 µM
same,inhibition at 10 µM,"MCF7; Homo sapiens, MCF7, read-out: growth inhibition % (GI%)",84.5%
same,CC50,"MCF7; Homo sapiens, MCF7, 5 doses, read-out: LC50 (the source's name)",25.6 µM
same,TGI,"MCF7; MCF7, 5 doses",5.5 µM
same,inhibition at 10 µM,"LOX IMIV; Homo sapiens, 60 cell, read-out: growth inhibition % (GI%)",> 100%
same,GI50,"LOX IMIV; Homo sapiens, LOX IMVI",1.29 µM
same,CC50,"LOX IMIV; Homo sapiens, LOX IMVI, 5 doses, read-out: LC50 (the source's name)",5.2 µM
same,TGI,"LOX IMIV; LOX IMVI, 5 doses",2.59 µM
same,TGI,"HOP-62; HOP-62, 5 doses",4.05 µM
same,GI50,"HOP-62; Homo sapiens, HOP-62",1.69 µM
same,inhibition at 10 µM,"HOP-62; Homo sapiens, HOP-62, read-out: growth inhibition % (GI%)",67.4%
same,CC50,"HOP-62; Homo sapiens, HOP-62, 5 doses, read-out: LC50 (the source's name)",9.69 µM
same,GI50,"OVCAR-8; Homo sapiens, OVCAR-8",2.41 µM
same,inhibition at 10 µM,"OVCAR-8; Homo sapiens, OVCAR-8, read-out: growth inhibition % (GI%)",86.6%
same,CC50,"OVCAR-8; Homo sapiens, OVCAR-8, 5 doses, read-out: LC50 (the source's name)",> 100 µM
same,TGI,"OVCAR-8; OVCAR-8, 5 doses",6.56 µM
same,TGI,CCRF-CEM; 5 doses,48.5 µM
same,GI50,CCRF-CEM; Homo sapiens,3.09 µM
same,CC50,CCRF-CEM; [1],> 100 µM
same,inhibition at 10 µM,CCRF-CEM; [2],> 100%
same,GI50,"MOLT-4; Homo sapiens, MOLT-4",2.29 µM
same,inhibition at 10 µM,"MOLT-4; Homo sapiens, MOLT-4, read-out: growth inhibition % (GI%)",> 100%
same,CC50,"MOLT-4; Homo sapiens, MOLT-4, 5 doses, read-out: LC50 (the source's name)",44.7 µM
same,TGI,"MOLT-4; MOLT-4, 5 doses",9.23 µM
same,TGI,"HT29; HT29, 5 doses",11.1 µM
same,GI50,"HT29; Homo sapiens, HT-29",2.14 µM
same,inhibition at 10 µM,"HT29; Homo sapiens, HT-29, read-out: growth inhibition % (GI%)",98.2%
same,LC50 (concentration giving 50% net cell kill),"HT29; Homo sapiens, HT-29, HT29, 5 doses",> 100 µM
same,GI50,"SNB-75; Homo sapiens, SNB-75",3.99 µM
same,inhibition at 10 µM,"SNB-75; Homo sapiens, SNB-75, read-out: growth inhibition % (GI%)",42.1%
same,CC50,"SNB-75; Homo sapiens, SNB-75, 5 doses, read-out: LC50 (the source's name)",> 100 µM
same,TGI,"SNB-75; SNB-75, 5 doses",29.2 µM
same,TGI,"COLO-205; COLO 205, 5 doses",8.74 µM
same,GI50,"COLO-205; Homo sapiens, COLO 205",2.79 µM
same,inhibition at 10 µM,"COLO-205; Homo sapiens, COLO 205, read-out: growth inhibition % (GI%)",85.4%
same,LC50,"COLO-205; Homo sapiens, COLO 205, 5 doses",91.6 µM
same,GI50,"PC-3; Homo sapiens, PC-3",2.58 µM
same,inhibition at 10 µM,"PC-3; Homo sapiens, PC-3, read-out: growth inhibition % (GI%)",99.2%
same,CC50,"PC-3; Homo sapiens, PC-3, 5 doses, read-out: LC50 (the source's name)",> 100 µM
same,TGI,"PC-3; PC-3, 5 doses",9.32 µM
same,GI50,"K-562; Homo sapiens, K562",4.15 µM
same,inhibition at 10 µM,"K-562; Homo sapiens, K562, read-out: growth inhibition % (GI%)",77%
same,CC50,"K-562; Homo sapiens, K562, K-562, 5 doses, read-out: LC50 (the source's name)",> 100 µM
same,TGI,"K-562; K-562, 5 doses",20.2 µM
same,GI50,"U251; Homo sapiens, U-251",1.65 µM
same,inhibition at 10 µM,"U251; Homo sapiens, U-251, read-out: growth inhibition % (GI%)",> 100%
same,CC50,"U251; Homo sapiens, U-251, U251, 5 doses, read-out: LC50 (the source's name)",8.23 µM
same,TGI,"U251; U251, 5 doses",3.69 µM
same,GI50,"OVCAR-4; Homo sapiens, OVCAR-4",1.89 µM
same,inhibition at 10 µM,"OVCAR-4; Homo sapiens, OVCAR-4, read-out: growth inhibition % (GI%)",98.3%
same,CC50,"OVCAR-4; Homo sapiens, OVCAR-4, 5 doses, read-out: LC50 (the source's name)",17.5 µM
same,TGI,"OVCAR-4; OVCAR-4, 5 doses",4.57 µM
same,TGI,"A498; A498, 5 doses",4.34 µM
same,GI50,"A498; Homo sapiens, A498",1.94 µM
same,inhibition at 10 µM,"A498; Homo sapiens, A498, read-out: growth inhibition % (GI%)",> 100%
same,CC50,"A498; Homo sapiens, A498, 5 doses, read-out: LC50 (the source's name)",9.74 µM
same,GI50,"SK-MEL-28; Homo sapiens, SK-MEL-28",1.51 µM
same,inhibition at 10 µM,"SK-MEL-28; Homo sapiens, SK-MEL-28, read-out: growth inhibition % (GI%)",96.8%
same,CC50,"SK-MEL-28; Homo sapiens, SK-MEL-28, 5 doses, read-out: LC50 (the source's name)",6.01 µM
same,TGI,"SK-MEL-28; SK-MEL-28, 5 doses",3.01 µM
